Activity calls are given as the source filed them.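 The calls were made as follows: active = compounds giving half or more protection of infected cells from virus-caused growth loss, again on retest; inactive = the rest.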
Tested on: CEM cells HIV-1 protection, formazan growth assay
Assay: NCI AIDS Antiviral Assay
Settings: for IC50: measured here: growth of uninfected CEM cells
How it was run: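 Protection of CEM cells against HIV-1 measured as cell growth via soluble formazan read-out, with five concentrations tested on both infected and uninfected cells; failure to protect may reflect toxicity.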

CC1=N/C(=C\c2ccc(/C=C3/N=C(C)OC3=O)cc2)C(=O)O1
EC50: > 851 µM | IC50: 46.8 µM

Nc1nc(Cl)c(N)c(NCC2(CO)CC(Cc3ccccc3)C2)n1 (stereo unspecified)
EC50: > 200 µM | IC50: 19.5 µM

CCOc1ccc(N=Cc2cc(OC)c(OC)c(OC)c2)cc1
EC50: > 60.3 µM | IC50: > 60.3 µM

CC1=C(N2CC2)C(=O)c2nc3n(c2C1=O)CCC3O (stereo unspecified)
outcome: inactive

O=[N+]([O-])c1ccc2c(c1)nc1n2C(c2c(F)cccc2F)SC1 (stereo unspecified)
EC50: 186 µM | IC50: 195 µM

CCC(=O)N1C(=O)C(C)C23c4cccc([N+](=O)[O-])c4C(=O)N2CCCN13 (stereo unspecified)
EC50: > 692 µM | IC50: > 692 µM

CC(=O)c1nc2ccccc2n1C(C)C(=O)c1ccccc1 (stereo unspecified)
EC50: > 200 µM | IC50: 11.2 µM

c1cncc(-c2nc3sc(-c4cccnc4)nc3s2)c1
outcome: inactive

O=C1C=C(Nc2ccc(Cl)cc2Cl)C(=O)C=C1Nc1ccc(Cl)cc1Cl
EC50: > 200 µM | IC50: > 200 µM

O=S(=O)(c1ccccc1)N1CCC1c1ccccc1 (stereo unspecified)
outcome: inactive

CC(C)(C)OC(=O)NC(Cc1ccc(OCc2ccccc2)cn1)C(N)=O (stereo unspecified)
EC50: > 200 µM | IC50: > 100 µM

Cc1cc(N(C)C)c(C=O)c(C)c1C=O
EC50: > 1230 µM | IC50: 93.3 µM

C=C1CN(S(=O)(=O)c2ccc(C)cc2)CCCN(CC2CC=CCC2)CCCN(S(=O)(=O)c2ccc(C)cc2)C1 (stereo unspecified)
EC50: > 200 µM | IC50: 1.29 µM

CC(=O)c1cc(S(=O)(=O)c2ccc(O)c(C(C)=O)c2)ccc1O
EC50: > 200 µM | IC50: 42.7 µM

[pH]1p2[pH]p3p1p3[pH]2.c1cc[c]([Ge]([c]2ccccc2)[c]2ccccc2)cc1.c1cc[c]([Ge]([c]2ccccc2)[c]2ccccc2)cc1.c1cc[c]([Ge]([c]2ccccc2)[c]2ccccc2)cc1
outcome: inactive

C1CN2CCC1C1(C2)SSC2(CN3CCC2CC3)S1 (stereo unspecified)
EC50: > 200 µM | IC50: > 200 µM

COc1ccc(C(O)/C(=N/N)c2nc3ccc(Cl)cc3[nH]c2=O)cc1 (stereo unspecified)
EC50: > 263 µM | IC50: 251 µM

CC(C)(C)OC(=O)c1cccnc1/C=N/O
EC50: > 589 µM | IC50: 186 µM

N[C@@H]1c2c(csc2Br)C(=O)[C@@H]1O
EC50: > 200 µM | IC50: 11 µM

O=C1c2cccc3cc([N+](=O)[O-])cc(c23)C(=O)N1C(Cc1ccccc1)c1ccccc1 (stereo unspecified)
EC50: > 200 µM | IC50: 105 µM

Cc1cccc(C[P+](c2ccccc2)(c2ccccc2)c2ccccc2)c1
EC50: > 200 µM | IC50: 0.631 µM

CC(C)(C)OC(=O)NC12C3C4C1C1C2C3C41NC(=O)OC(C)(C)C (stereo unspecified)
EC50: > 200 µM | IC50: 53.7 µM

C(=C/[PH+](c1ccccc1)c1ccccc1)/[PH+](c1ccccc1)c1ccccc1.[C-]#[O+].[C-]#[O+].[C-]#[O+].[C-]#[O+].[C-]#[O+].[Mo+2].[Mo+4].[c-]1[c-][c-][cH-][c-]1.[c-]1[c-][c-][cH-][c-]1
EC50: > 6.03 µM | IC50: 3.31 µM

COc1ccc2c(c1)N(S(=O)(=O)c1ccc(C)cc1)CC1=C2CCP1(C)=O (stereo unspecified)
outcome: inactive

CC(C)(C)Sc1nnc(SC(C)(C)C)c2c(=O)[nH]nc(SC(C)(C)C)c12
outcome: inactive

O=C1C2CCN(CC2)C1CNC1(c2ccccc2)CCCCC1 (stereo unspecified)
outcome: inactive

N#CC(=C=[N-])[n+]1ccc(Cl)cc1
outcome: inactive

N#CCCC(C#N)(C#N)CCC#N
EC50: > 759 µM | IC50: > 759 µM

c1ccc(-c2sc(-c3ccccc3)c3c2C2CCC3C2)cc1
EC50: > 200 µM | IC50: 36.3 µM

O=C(c1ccc2c(c1)OCO2)N1OC2C=CC1CC2 (stereo unspecified)
EC50: > 955 µM | IC50: 513 µM

Oc1cc(O)c2c(c1)OC(c1ccc(O)c(O)c1)C(O)[C@H]2c1c(O)cc(O)c2c1OC(c1ccc(O)c(O)c1)C(O)C2 (stereo partly specified)
EC50: > 200 µM | IC50: 110 µM

CSc1nnc2n(C)c3c(=O)n(C)c(=O)n(C)c3n12
EC50: > 200 µM | IC50: > 200 µM

COC(=O)NC(=O)c1cn(C2CCCCC2)c(=O)[nH]c1=O
EC50: > 123 µM | IC50: > 123 µM

C[N+]1(C)CN(c2ccccc2)C2(CCN(CCCC(=O)c3cccs3)CC2)C1=O
EC50: > 200 µM | IC50: 55 µM

COC(=O)c1nc(=S)[nH]c(C(=O)OC)c1C(=O)/C=C/c1ccccc1
EC50: > 191 µM | IC50: 120 µM

c1ccc2c3c([nH]c2c1)[C@H]1C2CCCCN2CN1CC3 (stereo partly specified)
EC50: > 676 µM | IC50: 214 µM

COC1(OC)c2ccccc2C2(O)c3ccccc3C(=O)C12 (stereo unspecified)
outcome: inactive

Cc1ccc(-c2c(C#N)c(-c3ccc(Cl)cc3)c(C#N)c(=O)n2NS(=O)(=O)c2ccccc2)cc1
EC50: > 200 µM | IC50: 29.5 µM

CN(C)CCNc1c2ccccc2nc2cccc([N+](=O)[O-])c12
EC50: > 2 µM | IC50: 0.024 µM

COc1ccc(-c2c(C#N)c(N)n(C3OCC(O)C(O)C3O)c(=S)c2C#N)cc1 (stereo unspecified)
EC50: > 200 µM | IC50: 117 µM

CCOC(=O)c1cc(/C=C/C(C)=C/C(=O)OC)oc1-c1ccccc1
outcome: inactive

COc1cc(-c2cc(=O)c3c(O)c(OC)c(OC)c(OC)c3o2)ccc1O
EC50: > 132 µM | IC50: 9.33 µM

O=C1c2ccccc2C(=O)N1n1c(Cc2ccc(Cl)cc2)n[nH]c1=O
EC50: > 200 µM | IC50: > 200 µM
